Measurements: PubChem BioAssay AID264 (DTP/NCI, 2004)
“And” between values parts separate entries of the source, which are not always exact repeats. Identical values can stand only once. Records with an inconclusive call do not appear.

System: nude mice, LX-1 lung xenograft intrarenal, tumor weight T/C
Test: NCI In Vivo Anticancer Drug Screen. Data for tumor model Human Lung LX-1 Xenograft (intrarenal inoculation) in NU/NU Swiss (nude) mice
Settings: endpoint: mean tumor weight change, higher = larger tumour
Method in brief: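 Activity was scored by measuring tumors in treated animals and in vehicle controls, then reporting the treated result as a fraction of the control result.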

[1] = dose: 50.0 mg/kg/injection, schedule: Q01DX010 (sc), vehicle: saline with Tween-80
[2] = dose: 25.0 mg/kg/injection, schedule: Q01DX010 (sc), vehicle: Klucel (hydroxypropylcellulose) (HPC)
[3] = dose: 50.0 mg/kg/injection, schedule: Q01DX010 (sc), vehicle: Klucel (hydroxypropylcellulose) (HPC)
[4] = dose: 200.0 mg/kg/injection, schedule: Q01DX010 (sc), vehicle: Klucel (hydroxypropylcellulose) (HPC)
[5] = dose: 300.0 mg/kg/injection, schedule: Q04DX003 (sc), vehicle: saline with Tween-80
[6] = dose: 600.0 mg/kg/injection, schedule: Q04DX003 (sc), vehicle: saline with Tween-80
[7] = dose: 1200.0 mg/kg/injection, schedule: Q04DX003 (sc), vehicle: saline with Tween-80
[8] = dose: 2400.0 mg/kg/injection, schedule: Q04DX003 (sc), vehicle: saline with Tween-80
[9] = dose: 150.0 mg/kg/injection, schedule: Q04DX003 (sc), vehicle: Klucel (hydroxypropylcellulose) (HPC)
[10] = dose: 25.0 mg/kg/injection, schedule: Q01DX010 (sc), vehicle: saline
[11] = dose: 50.0 mg/kg/injection, schedule: Q01DX010 (sc), vehicle: saline
[12] = dose: 100.0 mg/kg/injection, schedule: Q01DX010 (sc), vehicle: saline
[13] = dose: 100.0 mg/kg/injection, schedule: Q01DX010 (sc), vehicle: Klucel (hydroxypropylcellulose) (HPC)
[14] = dose: 12.5 mg/kg/injection, schedule: Q01DX010 (sc), vehicle: Klucel (hydroxypropylcellulose) (HPC)

CC1(C)CC23C4COC(=O)C2CCC1C3CC4=O (configuration not stated)
T/C (dose: 150.0 mg/kg/injection, schedule: Q04DX003 (sc), vehicle: DMSO): 88 % of control | T/C (dose: 300.0 mg/kg/injection, schedule: Q04DX003 (sc), vehicle: DMSO): 51 % of control | T/C (dose: 600.0 mg/kg/injection, schedule: Q04DX003 (sc), vehicle: DMSO): 67 % of control | T/C (dose: 1200.0 mg/kg/injection, schedule: Q04DX003 (sc), vehicle: DMSO): 63 % of control

CSc1cc(C)[o+]c(C)c1
T/C (dose: 100.0 mg/kg/injection, schedule: Q04DX003 (sc), vehicle: Klucel (hydroxypropylcellulose) (HPC)): 87 % of control | T/C (dose: 200.0 mg/kg/injection, schedule: Q04DX003 (sc), vehicle: Klucel (hydroxypropylcellulose) (HPC)): 76 % of control

O=C(N/N=C\c1cc(Br)cc(Br)c1O)N/N=C/c1cc(Br)cc(Br)c1O
T/C [1]: 373 % of control | T/C (dose: 800.0 mg/kg/injection, schedule: Q01DX010 (sc), vehicle: saline with Tween-80): 67 % of control

CC(=O)OCc1cc(=O)n(C)c2c3c4c(cc12)c(C)cc(=O)n4CO3
T/C [2]: 113 % of control | T/C [3]: 83 % of control and 222 % of control | T/C [4]: 93 % of control and 105 % of control

CCOC(=O)CNC(=O)CCCCSc1ncnc2nc[nH]c12
T/C [5]: 80 % of control | T/C [6]: 86 % of control | T/C [7]: 85 % of control | T/C [8]: 114 % of control

COc1cc(Cl)ccc1C
T/C [5]: 116 % of control | T/C [6]: 88 % of control | T/C [7]: 100 % of control | T/C [8]: 121 % of control

Cc1ccc(N)c(N)c1
T/C (dose: 200.0 mg/kg/injection, schedule: Q04DX003 (sc), vehicle: saline with Tween-80): 57 % of control | T/C (dose: 400.0 mg/kg/injection, schedule: Q04DX003 (sc), vehicle: saline with Tween-80): 74 % of control | T/C (dose: 800.0 mg/kg/injection, schedule: Q04DX003 (sc), vehicle: saline with Tween-80): 57 % of control

CC(=O)Nc1ccc(C(=O)C=O)cc1
T/C (dose: 25.0 mg/kg/injection, schedule: Q01DX010 (sc), vehicle: saline with Tween-80): 69 % of control | T/C [1]: 103 % of control | T/C (dose: 100.0 mg/kg/injection, schedule: Q01DX010 (sc), vehicle: saline with Tween-80): 35 % of control | T/C (dose: 200.0 mg/kg/injection, schedule: Q01DX010 (sc), vehicle: saline with Tween-80): 45 % of control

C=CCc1cn(C2CC(O)C(CO)O2)c(=O)[nH]c1=O (configuration not stated)
T/C (dose: 300.0 mg/kg/injection, schedule: Q04DX003 (sc), vehicle: saline): 91 % of control | T/C (dose: 600.0 mg/kg/injection, schedule: Q04DX003 (sc), vehicle: saline): 82 % of control | T/C (dose: 1200.0 mg/kg/injection, schedule: Q04DX003 (sc), vehicle: saline): 74 % of control | T/C (dose: 2400.0 mg/kg/injection, schedule: Q04DX003 (sc), vehicle: saline): 111 % of control

[I][Hg][CH2]C1OCCOC1[CH2][Hg][I] (configuration not stated)
T/C [9]: 88 % of control | T/C (dose: 300.0 mg/kg/injection, schedule: Q04DX003 (sc), vehicle: Klucel (hydroxypropylcellulose) (HPC)): 74 % of control | T/C (dose: 600.0 mg/kg/injection, schedule: Q04DX003 (sc), vehicle: Klucel (hydroxypropylcellulose) (HPC)): 79 % of control | T/C (dose: 1200.0 mg/kg/injection, schedule: Q04DX003 (sc), vehicle: Klucel (hydroxypropylcellulose) (HPC)): 64 % of control

CC(C)NCC(O)COc1ccc(O)c(O)c1 (configuration not stated)
T/C (dose: 100.0 mg/kg/injection, schedule: Q04DX003 (sc), vehicle: saline): 104 % of control | T/C (dose: 200.0 mg/kg/injection, schedule: Q04DX003 (sc), vehicle: saline): 84 % of control | T/C (dose: 400.0 mg/kg/injection, schedule: Q04DX003 (sc), vehicle: saline): 114 % of control | T/C (dose: 800.0 mg/kg/injection, schedule: Q04DX003 (sc), vehicle: saline): 54 % of control

CCC1(O)CC2CN(CCc3c([nH]c4ccccc34)C(C(=O)OC)(c3cc4c(cc3OC)N(C)C3C(O)(C(=O)NCCSSCCNC(=O)C5(O)C(O)C6(CC)C=CCN7CCC8(c9cc(C%10(C(=O)OC)CC%11CN(CCc%12c%10[nH]c%10ccccc%12%10)CC(O)(CC)C%11)c(OC)cc9N(C)C58)C76)C(O)C5(CC)C=CCN6CCC43C65)C2)C1 (configuration not stated)
T/C (dose: 0.75 mg/kg/injection, schedule: Q04DX003 (sc), vehicle: saline): 46 % of control | T/C (dose: 1.5 mg/kg/injection, schedule: Q04DX003 (sc), vehicle: saline): 23 % of control and 46 % of control | T/C (dose: 1.5 mg/kg/injection, schedule: Q04DX003 (sc), vehicle: suspension in saline): 105 % of control | T/C (dose: 6.0 mg/kg/injection, schedule: Q04DX003 (sc), vehicle: suspension in saline): 81 % of control | T/C (dose: 12.0 mg/kg/injection, schedule: Q04DX003 (sc), vehicle: saline): 88 % of control | T/C (dose: 12.0 mg/kg/injection, schedule: Q04DX003 (sc), vehicle: suspension in saline): 65 % of control

C(CC1CO1)C1CO1 (configuration not stated)
T/C [10]: 104 % of control | T/C [11]: 64 % of control | T/C [12]: 42 % of control

C=C1C(=O)C2=CC1CCC(=O)C1(C)CCC(OC(C)=O)C(C)(C)C1CC2O (configuration not stated)
T/C (dose: 60.0 mg/kg/injection, schedule: Q04DX003 (sc), vehicle: Klucel (hydroxypropylcellulose) (HPC)): 121 % of control | T/C (dose: 120.0 mg/kg/injection, schedule: Q04DX003 (sc), vehicle: Klucel (hydroxypropylcellulose) (HPC)): 57 % of control

CCCCCCCC(=O)N/N=C(\CO)[C@]1(O)Cc2c(O)c3c(c(O)c2[C@@H](OC2CC(N)C(O)C(C)O2)C1)C(=O)c1c(OC)cccc1C3=O (some centres not stated)
T/C (dose: 12.5 mg/kg/injection, schedule: Q01DX010 (sc), vehicle: water): 40 % of control | T/C (dose: 25.0 mg/kg/injection, schedule: Q01DX010 (sc), vehicle: water): 63 % of control | T/C (dose: 50.0 mg/kg/injection, schedule: Q01DX010 (sc), vehicle: water): 24 % of control

CC1CN=C(c2ccc(NC(=O)c3ccc(C(=O)Nc4ccc(C5=NCC(C)N5)cc4)cc3)cc2)N1 (configuration not stated)
T/C [3]: 213 % of control | T/C [13]: 68 % of control | T/C [4]: 94 % of control | T/C (dose: 400.0 mg/kg/injection, schedule: Q01DX010 (sc), vehicle: Klucel (hydroxypropylcellulose) (HPC)): 84 % of control

CC(=O)Oc1c(C)[nH]ccc1=O
T/C (dose: 300.0 mg/kg/injection, schedule: Q04DX003 (sc), vehicle: suspension in saline): 73 % of control | T/C (dose: 600.0 mg/kg/injection, schedule: Q04DX003 (sc), vehicle: suspension in saline): 65 % of control

CCOC(=O)Nc1cc2c(c(N)n1)N=C(CN(C)c1ccccc1)CN2
T/C [14]: 166 % of control | T/C [2]: 186 % of control | T/C [13]: 103 % of control

NC(=O)c1ncn(C2OC(CO)C(O)C2O)c1O (configuration not stated)
T/C [9]: 99 % of control

c1ccc([P+](c2ccccc2)(c2ccccc2)c2ccccc2)cc1
T/C (dose: 2.5 mg/kg/injection, schedule: Q04DX003 (sc), vehicle: saline): 93 % of control | T/C (dose: 5.0 mg/kg/injection, schedule: Q04DX003 (sc), vehicle: saline): 107 % of control | T/C (dose: 10.0 mg/kg/injection, schedule: Q04DX003 (sc), vehicle: saline): 71 % of control and 87 % of control

C[C@@]1(CO)[C@H](O)CC[C@@]2(C)[C@H]1CC[C@H]1C[C@@H]3C[C@@]12CC[C@@]3(O)COC(=O)CN
T/C (dose: 133.0 mg/kg/injection, schedule: Q01DX010 (sc), vehicle: saline + alcohol): 101 % of control | T/C (dose: 200.0 mg/kg/injection, schedule: Q01DX010 (sc), vehicle: saline + alcohol): 106 % of control | T/C (dose: 62.5 micrograms/kg/injection, schedule: Q01DX010 (sc), vehicle: saline + alcohol): 102 % of control | T/C (dose: 500.0 micrograms/kg/injection, schedule: Q01DX010 (sc), vehicle: saline + alcohol): 115 % of control

Nc1n[n+](-c2ccccc2)no1
T/C (dose: 37.5 mg/kg/injection, schedule: Q04DX003 (sc), vehicle: water): 87 % of control | T/C (dose: 75.0 mg/kg/injection, schedule: Q04DX003 (sc), vehicle: water): 89 % of control

C=CS(=O)(=O)c1ccccc1
T/C [10]: 57 % of control | T/C [11]: 65 % of control | T/C [12]: 29 % of control

CCCCc1ccc(-n2c(C)c(COC(=O)NC)c(COC(=O)NC)c2C)cc1
T/C [14]: 111 % of control | T/C [2]: 92 % of control | T/C [3]: 100 % of control | T/C [13]: 104 % of control

CCC1=C2C(=O)c3ccccc3C2=C(C)S(=O)(=O)O1
T/C [5]: 66 % of control | T/C [6]: 70 % of control | T/C [7]: 89 % of control | T/C [8]: 86 % of control
